Converted amounts (≈) assume the structure as drawn.
Key:
[1] = Plasma protein binding in mouse assessed as unbound fraction; format: ADME, cell-free
[2] = Permeability of compound at pH 7.4 by PAMPA assay; format: ADME; details: read-out: permeability
[3] = Solubility of compound at pH 7.4; format: physicochemical; details: buffer
Cytochrome P450 1A2 = biological target: T1, Cytochrome P450 1A2 (Homo sapiens, UniProt P05177); test: Inhibition of CYP1A2 (unknown origin); format: ADME
T1 sequence (P05177 whole entry): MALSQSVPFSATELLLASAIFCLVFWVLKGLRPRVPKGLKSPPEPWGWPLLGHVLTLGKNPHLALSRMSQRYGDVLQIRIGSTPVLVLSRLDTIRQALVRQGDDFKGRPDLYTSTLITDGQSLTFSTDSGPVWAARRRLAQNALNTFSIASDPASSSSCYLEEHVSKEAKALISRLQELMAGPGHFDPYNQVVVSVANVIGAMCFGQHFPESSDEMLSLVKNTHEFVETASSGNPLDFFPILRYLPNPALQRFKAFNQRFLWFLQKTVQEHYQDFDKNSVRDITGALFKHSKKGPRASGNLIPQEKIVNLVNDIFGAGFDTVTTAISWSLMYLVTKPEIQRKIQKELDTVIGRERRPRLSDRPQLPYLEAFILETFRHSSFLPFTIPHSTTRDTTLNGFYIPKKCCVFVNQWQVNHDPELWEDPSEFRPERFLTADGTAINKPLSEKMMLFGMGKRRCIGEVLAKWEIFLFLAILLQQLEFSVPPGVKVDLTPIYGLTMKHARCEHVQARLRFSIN

Cytochrome P450 2C9 = Cytochrome P450 2C9 (Homo sapiens, UniProt P11712); test: Inhibition of CYP2C9 (unknown origin); format: ADME
Chain of Cytochrome P450 2C9 (P11712 whole entry): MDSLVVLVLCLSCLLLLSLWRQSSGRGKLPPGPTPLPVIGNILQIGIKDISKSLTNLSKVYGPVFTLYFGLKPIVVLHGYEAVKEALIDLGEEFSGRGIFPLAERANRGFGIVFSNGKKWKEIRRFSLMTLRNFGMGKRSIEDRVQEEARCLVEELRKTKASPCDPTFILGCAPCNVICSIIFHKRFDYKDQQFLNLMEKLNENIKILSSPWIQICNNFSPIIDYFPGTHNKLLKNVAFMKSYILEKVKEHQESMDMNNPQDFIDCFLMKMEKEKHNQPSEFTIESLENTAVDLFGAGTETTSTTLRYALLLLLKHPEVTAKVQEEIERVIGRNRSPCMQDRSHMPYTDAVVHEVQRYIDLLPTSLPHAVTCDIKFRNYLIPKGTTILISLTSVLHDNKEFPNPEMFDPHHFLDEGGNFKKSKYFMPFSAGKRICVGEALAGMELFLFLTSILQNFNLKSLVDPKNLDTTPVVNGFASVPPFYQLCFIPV

Cytochrome P450 2D6 = Cytochrome P450 2D6 (Homo sapiens, UniProt P10635); test: Inhibition of CYP2D6 (unknown origin); format: ADME
Chain of Cytochrome P450 2D6 (P10635 whole entry): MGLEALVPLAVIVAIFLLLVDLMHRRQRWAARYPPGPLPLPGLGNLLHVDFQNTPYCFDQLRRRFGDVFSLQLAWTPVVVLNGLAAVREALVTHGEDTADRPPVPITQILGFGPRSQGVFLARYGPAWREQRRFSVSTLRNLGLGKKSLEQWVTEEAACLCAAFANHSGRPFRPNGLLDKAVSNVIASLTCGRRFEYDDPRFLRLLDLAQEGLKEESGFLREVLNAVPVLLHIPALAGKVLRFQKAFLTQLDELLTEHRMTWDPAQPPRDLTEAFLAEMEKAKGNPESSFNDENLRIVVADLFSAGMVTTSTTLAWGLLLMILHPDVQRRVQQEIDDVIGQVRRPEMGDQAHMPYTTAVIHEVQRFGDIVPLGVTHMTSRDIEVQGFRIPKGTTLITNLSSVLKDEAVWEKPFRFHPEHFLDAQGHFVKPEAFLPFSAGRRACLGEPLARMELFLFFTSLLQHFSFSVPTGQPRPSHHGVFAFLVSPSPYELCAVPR

Cytochrome P450 3A4 = Cytochrome P450 3A4 (Homo sapiens, UniProt P08684); test: Inhibition of CYP3A4 (unknown origin); format: ADME
Chain of Cytochrome P450 3A4 (P08684 whole entry): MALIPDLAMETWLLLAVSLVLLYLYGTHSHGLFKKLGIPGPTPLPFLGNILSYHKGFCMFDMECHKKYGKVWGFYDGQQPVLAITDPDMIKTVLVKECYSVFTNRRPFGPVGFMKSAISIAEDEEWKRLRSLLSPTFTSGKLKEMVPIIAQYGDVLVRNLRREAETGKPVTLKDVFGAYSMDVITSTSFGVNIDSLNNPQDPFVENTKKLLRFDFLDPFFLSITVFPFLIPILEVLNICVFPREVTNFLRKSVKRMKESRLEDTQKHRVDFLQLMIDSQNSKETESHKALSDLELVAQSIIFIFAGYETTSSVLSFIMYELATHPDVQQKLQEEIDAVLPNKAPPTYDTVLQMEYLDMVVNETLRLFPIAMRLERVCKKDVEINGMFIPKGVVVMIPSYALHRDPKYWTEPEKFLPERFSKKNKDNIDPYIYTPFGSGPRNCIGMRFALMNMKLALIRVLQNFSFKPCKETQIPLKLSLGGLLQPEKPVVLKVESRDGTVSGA

[4] = Half life in CD1 mouse at 3 mg/kg, iv; format: ADME, organism-based; details: in vivo
[5] = AUC in CD1 mouse at 3 mg/kg, iv; format: ADME, organism-based; set-up: dose 3 mg/kg, route iv; details: in vivo
[6] = Plasma clearance in CD1 mouse at 3 mg/kg, iv; format: ADME, organism-based; details: in vivo
[7] = Volume of distribution at steady state in CD1 mouse at 3 mg/kg, iv; format: ADME, organism-based; details: in vivo, read-out: Vdss
[8] = Half life in CD1 mouse at 10 mg/kg, po; format: ADME, organism-based; details: in vivo
[9] = Tmax in CD1 mouse at 10 mg/kg, po; format: ADME, organism-based; details: in vivo
[10] = Cmax in CD1 mouse at 10 mg/kg, po; format: ADME, organism-based; set-up: dose 10 mg/kg, route po; details: in vivo
[11] = AUC (0 to infinity) in CD1 mouse at 10 mg/kg, po; format: ADME, organism-based; set-up: dose 10 mg/kg, route po; details: in vivo
[12] = Oral bioavailability in CD1 mouse at 10 mg/kg; format: ADME, organism-based; details: in vivo
[13] = Half life in Sprague-Dawley rat at 0.5 mg/kg, iv; format: ADME, organism-based; details: in vivo
[14] = AUC in Sprague-Dawley rat at 0.5 mg/kg, iv; format: ADME, organism-based; set-up: dose 0.5 mg/kg, route iv; details: in vivo
[15] = Plasma clearance in Sprague-Dawley rat at 0.5 mg/kg, iv; format: ADME, organism-based; details: in vivo
[16] = Volume of distribution at steady state in Sprague-Dawley rat at 0.5 mg/kg, iv; format: ADME, organism-based; details: in vivo, read-out: Vdss
[17] = Half life in Sprague-Dawley rat at 3 mg/kg, po; format: ADME, organism-based; details: in vivo
[18] = Tmax in Sprague-Dawley rat at 3 mg/kg, po; format: ADME, organism-based; details: in vivo
[19] = Cmax in Sprague-Dawley rat at 3 mg/kg, po; format: ADME, organism-based; set-up: dose 3 mg/kg, route po; details: in vivo
[20] = AUC (0 to infinity) in Sprague-Dawley rat at 3 mg/kg, po; format: ADME, organism-based; set-up: dose 3 mg/kg, route po; details: in vivo
[21] = Oral bioavailability in Sprague-Dawley rat at 3 mg/kg; format: ADME, organism-based; details: in vivo
[22] = Permeability of the compound by PAMPA assay; format: ADME; details: read-out: permeability
Glucocorticoid receptor = biological target: T2, Glucocorticoid receptor (Homo sapiens, UniProt P04150); test: Inhibition of glucocorticoid receptor (unknown origin)
T2 sequence (P04150 whole entry): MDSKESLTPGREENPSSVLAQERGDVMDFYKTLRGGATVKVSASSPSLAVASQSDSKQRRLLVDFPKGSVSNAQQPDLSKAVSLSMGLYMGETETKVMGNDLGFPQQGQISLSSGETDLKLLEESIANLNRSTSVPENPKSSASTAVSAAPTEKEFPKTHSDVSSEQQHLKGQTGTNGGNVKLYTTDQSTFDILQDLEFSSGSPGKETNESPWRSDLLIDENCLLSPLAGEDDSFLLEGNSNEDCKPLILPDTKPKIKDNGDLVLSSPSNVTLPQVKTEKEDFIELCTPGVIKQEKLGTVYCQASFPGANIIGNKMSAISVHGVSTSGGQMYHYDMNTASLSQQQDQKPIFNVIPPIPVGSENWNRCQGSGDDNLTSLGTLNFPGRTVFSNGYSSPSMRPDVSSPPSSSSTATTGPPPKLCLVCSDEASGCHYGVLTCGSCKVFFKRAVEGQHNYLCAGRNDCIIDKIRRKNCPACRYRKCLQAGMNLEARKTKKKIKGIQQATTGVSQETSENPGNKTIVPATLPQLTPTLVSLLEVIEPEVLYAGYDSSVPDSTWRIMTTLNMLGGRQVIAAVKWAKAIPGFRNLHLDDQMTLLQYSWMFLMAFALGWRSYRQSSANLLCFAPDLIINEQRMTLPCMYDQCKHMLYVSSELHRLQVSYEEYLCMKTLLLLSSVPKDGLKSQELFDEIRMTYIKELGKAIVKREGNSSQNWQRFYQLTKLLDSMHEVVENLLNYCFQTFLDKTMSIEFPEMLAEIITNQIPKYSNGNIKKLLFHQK

For `C[C@]12C=CC(=O)C=C1CC[C@@H]1[C@@H]2[C@@H](O)C[C@@]2(C)[C@H]1C[C@H]1O[C@@H](c3ccc(Cc4cccc(N)c4)cc3)O[C@]12C(=O)CO`, which Fu [1] is on record?
The Fu was 0.01%.

And the Papp [2]?
The Papp was 0.2 ×10⁻⁶ cm/s.

And the solubility [3]?
The solubility was 1.33 µM (≈ 0.758 µg/mL).

What about the IC50 (Cytochrome P450 1A2) of the same compound?
The IC50 was > 40 µM.

What about the IC50 (Cytochrome P450 2C9) of the same compound?
Its IC50 is 18.4 µM.

What about the IC50 (Cytochrome P450 2D6) of the same compound?
The IC50 was > 40 µM.

What about the IC50 (Cytochrome P450 3A4) of the same compound?
The IC50 was < 0.02 µM.

What about the half-life [4] of the same compound?
Its half-life is 3.82 h.

And the AUC [5]?
The AUC was 3580 ng·h/mL.

And the clearance [6]?
The clearance was 14.2 mL/min/kg.

And the Vd [7]?
The Vd was 2.91 L/kg.

What about the half-life [8] of the same compound?
Its half-life is 3.56 h.

What about the Tmax [9] of the same compound?
Its Tmax is 1.42 h.

What about the Cmax [10] of the same compound?
The Cmax was 40 ng/mL.

What about the AUC [11] of the same compound?
The AUC was 0.21 µg/h/mL.

And the bioavailability [12]?
Its bioavailability is 1%.

And the half-life [13]?
The half-life was 1.2 h.

And the AUC [14]?
Its AUC is 220 ng·h/mL.

What about the clearance [15] of the same compound?
The clearance was 37.8 mL/min/kg.

And the Vd [16]?
The Vd was 2.55 L/kg.

And the half-life [17]?
The half-life was 2.86 h.

And the Tmax [18]?
The Tmax was 0.25 h.

What about the Cmax [19] of the same compound?
Its Cmax is 80 ng/mL.

And the AUC(0-inf) [20]?
The AUC(0-inf) was 220 ng·h/mL.

And the bioavailability [21]?
The bioavailability was 16.8%.

For `C[C@]12C=CC(=O)C=C1CC[C@@H]1[C@@H]2[C@@H](O)C[C@@]2(C)[C@H]1C[C@H]1O[C@@H](c3ccc(CN4CCNCC4)cc3)O[C@]12C(=O)CO`, which Papp [22] is on record?
The Papp was 0.23 ×10⁻⁶ cm/s.

With `C[C@]12C=CC(=O)C=C1[C@@H](F)C[C@H]1[C@@H]3C[C@H]4O[C@@H](c5ccc(CN6CCNCC6)cc5)O[C@@]4(C(=O)CO)[C@@]3(C)C[C@H](O)[C@@]12F` as the compound, how does the Papp [22] read?
Its Papp is 0.22 ×10⁻⁶ cm/s.

For `C[C@]12C=CC(=O)C=C1CC[C@@H]1[C@@H]2[C@@H](O)C[C@@]2(C)[C@H]1C[C@H]1O[C@@H](C3CCCCC3)O[C@]12C(=O)CO` [DESISOBUTYRYLCICLESONIDE], which IC50 (Glucocorticoid receptor) is on record?
The IC50 was 0.002 µM.
